What was measured:
[1] = biological target: T1, Human recombinant MAO-A (Homo sapiens, UniProt P21397); assay: MAO-A kynuramine fluorescent assay; type: biochemical; conditions: S1 Table A
T1 construct: purchased Sigma Aldrich M7316
Description: Human recombinant monoamine oxidase proteins MAO-A and MAO-B (Sigma Aldrich, M7316 and M7441) were used to monitor the MAO enzymatic activities in a fluorescent assay using kynuramine as a substrate. […] Enzymatic reaction was initiated by the addition of specific KM Kynuramine and incubated 1 hr at 37 °C. The oxidative deamination of the substrate was stopped by adding NaOH 2N (v/v). The conversion of kynuramine to 4-hydroxyquinoline by MAOs was monitored by fluorescence (λex = 320 nm, λem = 360 nm) using a microplate reader.

[2] = biological target: T2, rKDM1A (Homo sapiens, UniProt O60341); assay: Kinetics of inhibition of KDM1A; type: biochemical; conditions: pure recombinant enzyme, H3K4me2 peptide
T2 construct: purchased BPS Bioscience 50100
Description: Time course experiments were performed to assess the rate of inhibition of demethylation of a H3K4me2 peptide mediated by rKDM1A, monitoring the release of H2O2 produced during the reaction using a coupled horseradish peroxidase assay using Amplex Red reagent as a substrate. Conditions were the same as for IC50 determinations, but all reagents were added simultaneously.

[3] = test system: platelet (PLT) levels; assay: Rat pharmacodynamics: hematology, 5 day treatment and recovery
Excerpt: KDM1A is involved in hematopoiesis, and it is well known that KDM1A knockdown or KDM1A inhibitors can halt hematopoiesis when administered at sufficiently high doses and during sufficient time^(39). […] Data from N = 6 rats are represented as mean ± SEM.
Male Wistar rats (N = 3 or 6 per dose level) of 10-12 weeks of age were maintained in air and temperature controlled cages with regular supply of water and food. A maximum of […] were raised. Before first administration, the animals were marked on the tail for identification. […] Animal of each treatment group were sampled for blood on days 1, 3, 5, 8, 10, 12, 15, 17 and 19. Blood samples of days 1, 3 and 5 were obtained just one hr after the compound administration. Blood samples were obtained from leg saphenous vein using recipients treated with EDTA to avoid coagulation. The last day of the study, rats were euthanized under CO2 saturated atmosphere and blood was extracted by cardiac puncture and collected in recipients containing EDTA.
Blood samples obtained from leg saphenous vein or cardiac puncture were analyzed on a Diatron hematology analyzer at SEA (Plataforma Recerca Aplicada Animal de Laboratori, Parc Científic de Barcelona).
Hematology parameters were calculated as mean ± SEM and represented as a timecourse.

[4] = test system: SAMP8 mice; assay: Three Chamber Test (TCT); type: in vivo, mouse; conditions: 0.96 mg/kg/day
Description: Both male and female mice from the senescence accelerated strain SAMP8 and its control SAMR1 of different ages (see Table S3 for details) were used in these studies. Mice were breed in the animal facilities of the Pharmacy Faculty (University of Barcelona), maintained in a at 22 ± 2 °C controlled temperature in a 12 hr light / dark cycle (lights on at 8:00 am; 300 lux/0 lux) with ad libitum access to food (2018 TEKLAD, Harlan) and water. Male mice were housed individually (males) or in groups of 4-5 animals (females) in plastic colony boxes with a sawdust bedding material. […] SAMR1 mice treated with vehicle were included as a control. All drugs were administered via drinking water and diluted in vehicle. Drug concentration was calculated weekly in function of body weight and corrected in function of drinking water consumption. Cognitive function was evaluated by NORT, social behavior was evaluated by RI and anxiety and motor function were evaluated by EPM and OF. […]
The test was performed in a Plexiglas transparent box with three identical consecutive chambers (15 x 15 x 20 cm). […] This habituation time was monitored to avoid animals showing preference for one of the chambers. […] The time spent in each chamber and the time of direct exploration of the novel mice was measured.
Three Chamber Test (TCT): Mice were recorded for 5 min during habituation and an additional X min to run the test. […]

[5] = test system: 19 epigenetic targets; assay: Panel of 19 epigenetic targets; type: biochemical; conditions: 10 μM
Description: (§1) […]. MAO-A inhibition at 10 μM was 37%, in line with internal data.

[6] = biological target: DNMT1 (h) (Homo sapiens, UniProt P26358); assay: Epigenetic selectivity profile; type: biochemical
Description: as §1

[7] = biological target: FBXL10 (h) (Homo sapiens, UniProt Q8NHM5); assay: Epigenetic selectivity profile; type: biochemical
FBXL10 (h), sequence (Q8NHM5 whole entry): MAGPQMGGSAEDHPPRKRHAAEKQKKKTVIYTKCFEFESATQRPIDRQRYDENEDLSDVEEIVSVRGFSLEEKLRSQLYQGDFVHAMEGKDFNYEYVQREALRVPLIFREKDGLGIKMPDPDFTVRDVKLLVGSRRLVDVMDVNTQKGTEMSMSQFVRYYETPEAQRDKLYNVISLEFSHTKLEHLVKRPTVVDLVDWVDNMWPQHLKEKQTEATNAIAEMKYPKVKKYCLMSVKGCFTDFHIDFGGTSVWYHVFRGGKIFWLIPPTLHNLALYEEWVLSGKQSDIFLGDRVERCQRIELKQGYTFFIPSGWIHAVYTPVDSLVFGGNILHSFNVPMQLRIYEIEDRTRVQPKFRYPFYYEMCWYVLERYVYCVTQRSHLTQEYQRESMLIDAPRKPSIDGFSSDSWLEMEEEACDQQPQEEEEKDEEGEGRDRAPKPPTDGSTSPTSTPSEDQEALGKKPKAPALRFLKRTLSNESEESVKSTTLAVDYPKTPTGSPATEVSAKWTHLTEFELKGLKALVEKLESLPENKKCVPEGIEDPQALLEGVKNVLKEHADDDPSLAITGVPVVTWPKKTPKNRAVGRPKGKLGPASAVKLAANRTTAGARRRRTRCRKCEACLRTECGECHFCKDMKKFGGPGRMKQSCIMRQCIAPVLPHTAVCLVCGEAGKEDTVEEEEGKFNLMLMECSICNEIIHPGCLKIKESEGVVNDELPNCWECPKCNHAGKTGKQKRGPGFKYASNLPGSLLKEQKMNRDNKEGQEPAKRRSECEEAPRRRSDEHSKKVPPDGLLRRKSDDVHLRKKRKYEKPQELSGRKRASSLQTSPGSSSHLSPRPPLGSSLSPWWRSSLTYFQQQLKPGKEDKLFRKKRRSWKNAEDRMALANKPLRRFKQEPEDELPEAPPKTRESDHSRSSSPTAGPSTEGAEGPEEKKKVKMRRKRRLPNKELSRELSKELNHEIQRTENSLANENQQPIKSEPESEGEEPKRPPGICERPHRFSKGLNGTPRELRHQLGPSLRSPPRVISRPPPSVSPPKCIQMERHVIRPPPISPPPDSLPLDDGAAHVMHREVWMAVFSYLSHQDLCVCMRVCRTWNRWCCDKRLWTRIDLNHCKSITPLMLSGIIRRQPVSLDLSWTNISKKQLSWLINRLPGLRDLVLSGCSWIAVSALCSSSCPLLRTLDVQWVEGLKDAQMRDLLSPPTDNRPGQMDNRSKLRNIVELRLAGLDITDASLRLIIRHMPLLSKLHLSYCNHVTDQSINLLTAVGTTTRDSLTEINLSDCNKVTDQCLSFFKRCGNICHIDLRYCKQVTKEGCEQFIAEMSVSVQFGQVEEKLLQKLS
Description: as §1

[8] = biological target: HDAC3 (h) (Homo sapiens, UniProt O15379); assay: Epigenetic selectivity profile; type: biochemical
Description: as §1

[9] = biological target: HDAC4 (h) (Homo sapiens, UniProt P56524); assay: Epigenetic selectivity profile; type: biochemical
HDAC4 (h), sequence (P56524 whole entry): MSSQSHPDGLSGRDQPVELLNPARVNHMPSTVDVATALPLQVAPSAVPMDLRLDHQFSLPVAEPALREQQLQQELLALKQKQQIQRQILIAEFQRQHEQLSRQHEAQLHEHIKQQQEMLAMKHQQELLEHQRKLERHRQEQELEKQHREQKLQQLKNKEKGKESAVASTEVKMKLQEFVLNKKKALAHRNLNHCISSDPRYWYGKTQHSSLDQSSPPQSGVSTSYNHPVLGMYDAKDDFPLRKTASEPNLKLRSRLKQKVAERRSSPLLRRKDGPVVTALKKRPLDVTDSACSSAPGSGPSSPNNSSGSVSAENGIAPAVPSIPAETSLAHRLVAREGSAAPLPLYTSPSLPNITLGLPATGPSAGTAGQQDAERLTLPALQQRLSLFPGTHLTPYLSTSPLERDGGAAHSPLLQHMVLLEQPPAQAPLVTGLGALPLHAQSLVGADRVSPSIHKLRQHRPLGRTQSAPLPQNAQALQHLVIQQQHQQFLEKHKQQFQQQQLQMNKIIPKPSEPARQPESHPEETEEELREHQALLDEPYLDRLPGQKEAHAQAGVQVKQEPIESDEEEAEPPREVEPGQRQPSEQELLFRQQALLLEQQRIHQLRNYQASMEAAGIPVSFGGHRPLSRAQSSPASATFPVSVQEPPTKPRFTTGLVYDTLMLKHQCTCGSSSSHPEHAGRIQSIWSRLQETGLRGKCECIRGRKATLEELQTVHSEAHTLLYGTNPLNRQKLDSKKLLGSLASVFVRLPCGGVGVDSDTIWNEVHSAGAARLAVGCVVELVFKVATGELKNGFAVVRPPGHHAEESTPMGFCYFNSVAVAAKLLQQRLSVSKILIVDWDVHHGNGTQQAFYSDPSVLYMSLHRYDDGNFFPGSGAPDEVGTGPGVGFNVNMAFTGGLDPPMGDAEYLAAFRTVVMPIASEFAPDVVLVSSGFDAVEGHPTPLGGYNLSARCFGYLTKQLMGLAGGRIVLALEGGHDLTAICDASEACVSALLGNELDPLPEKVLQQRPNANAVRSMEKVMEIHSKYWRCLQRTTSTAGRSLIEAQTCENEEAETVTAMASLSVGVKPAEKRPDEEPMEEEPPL
Description: as §1

[10] = biological target: HDAC6 (h) (Homo sapiens, UniProt Q9UBN7); assay: Epigenetic selectivity profile; type: biochemical
Description: as §1

[11] = biological target: JARID1A (h) (Homo sapiens, UniProt P29375); assay: Epigenetic selectivity profile; type: biochemical
Description: as §1

[12] = biological target: JMJD1A (h) (Homo sapiens, UniProt Q9Y4C1); assay: Epigenetic selectivity profile; type: biochemical
JMJD1A (h), sequence (Q9Y4C1 whole entry): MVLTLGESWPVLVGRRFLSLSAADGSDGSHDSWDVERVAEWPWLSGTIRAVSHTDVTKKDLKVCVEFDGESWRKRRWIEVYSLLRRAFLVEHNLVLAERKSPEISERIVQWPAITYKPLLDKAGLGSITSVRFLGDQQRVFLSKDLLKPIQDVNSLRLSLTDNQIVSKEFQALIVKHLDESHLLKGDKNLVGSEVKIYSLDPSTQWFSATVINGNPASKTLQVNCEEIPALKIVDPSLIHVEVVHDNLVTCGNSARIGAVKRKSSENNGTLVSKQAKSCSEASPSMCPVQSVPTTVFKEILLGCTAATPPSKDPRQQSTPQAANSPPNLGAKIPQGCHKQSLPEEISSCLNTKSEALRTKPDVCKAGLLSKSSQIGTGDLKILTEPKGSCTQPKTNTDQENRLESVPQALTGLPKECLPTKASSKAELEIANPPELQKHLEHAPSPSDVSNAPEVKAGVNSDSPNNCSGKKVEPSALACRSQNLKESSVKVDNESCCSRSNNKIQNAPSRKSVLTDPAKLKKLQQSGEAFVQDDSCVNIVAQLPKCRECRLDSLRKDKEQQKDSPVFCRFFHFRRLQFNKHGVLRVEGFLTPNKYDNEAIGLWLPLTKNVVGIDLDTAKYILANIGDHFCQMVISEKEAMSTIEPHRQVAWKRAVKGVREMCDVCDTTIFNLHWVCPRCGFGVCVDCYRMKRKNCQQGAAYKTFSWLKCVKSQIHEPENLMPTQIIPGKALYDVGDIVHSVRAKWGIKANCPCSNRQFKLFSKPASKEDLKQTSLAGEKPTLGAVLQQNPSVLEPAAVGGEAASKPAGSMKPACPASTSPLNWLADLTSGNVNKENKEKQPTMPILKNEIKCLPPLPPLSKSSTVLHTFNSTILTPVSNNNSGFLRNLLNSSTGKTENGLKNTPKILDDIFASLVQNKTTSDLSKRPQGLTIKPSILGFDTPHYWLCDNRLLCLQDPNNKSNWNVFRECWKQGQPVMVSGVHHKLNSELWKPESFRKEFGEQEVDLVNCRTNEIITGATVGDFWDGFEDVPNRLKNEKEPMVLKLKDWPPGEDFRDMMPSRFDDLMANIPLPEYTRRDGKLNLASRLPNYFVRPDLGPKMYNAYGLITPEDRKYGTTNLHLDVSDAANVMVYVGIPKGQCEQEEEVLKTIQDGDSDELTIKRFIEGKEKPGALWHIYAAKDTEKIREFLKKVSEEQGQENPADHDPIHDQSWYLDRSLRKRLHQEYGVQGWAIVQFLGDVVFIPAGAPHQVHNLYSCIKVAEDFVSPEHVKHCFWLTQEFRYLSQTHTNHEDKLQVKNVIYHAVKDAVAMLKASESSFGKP
Description: as §1

[13] = biological target: JMJD2A (h) (Homo sapiens, UniProt O75164); assay: Epigenetic selectivity profile; type: biochemical
Description: as §1

[14] = biological target: JMJD3 (h) (Homo sapiens, UniProt O15054); assay: Epigenetic selectivity profile; type: biochemical
Description: as §1

[15] = biological target: MLL complex (h) (Homo sapiens, UniProt Q03164); assay: Epigenetic selectivity profile; type: biochemical
Description: as §1

[16] = biological target: SETD7 (h) (Homo sapiens, UniProt Q8WTS6); assay: Epigenetic selectivity profile; type: biochemical
SETD7 (h), sequence (Q8WTS6 whole entry): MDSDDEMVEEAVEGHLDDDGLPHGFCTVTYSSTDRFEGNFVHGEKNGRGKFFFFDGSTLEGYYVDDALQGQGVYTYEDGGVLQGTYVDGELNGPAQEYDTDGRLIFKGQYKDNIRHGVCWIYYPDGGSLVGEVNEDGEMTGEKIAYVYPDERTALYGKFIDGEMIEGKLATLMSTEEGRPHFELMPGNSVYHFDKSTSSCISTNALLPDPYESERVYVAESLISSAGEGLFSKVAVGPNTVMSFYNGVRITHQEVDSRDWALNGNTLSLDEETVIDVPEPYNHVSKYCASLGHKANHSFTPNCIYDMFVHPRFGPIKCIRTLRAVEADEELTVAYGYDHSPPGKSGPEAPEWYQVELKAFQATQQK
Description: as §1

[17] = biological target: sirtuin 1 (h) (inhibitor effect) (Homo sapiens, UniProt Q96EB6); assay: Epigenetic selectivity profile; type: biochemical
Description: as §1

[18] = biological target: T3, PKCa (h) (Homo sapiens, UniProt P17252); assay: CEREP Diversity Panel; type: biochemical
T3 construct: purchased CEREP (Eurofins Cerep)
Description: as §1

[19] = biological target: T4, PNMT (phenylethanolamine N-methyl transferase) (Bos taurus, UniProt P10938); assay: CEREP Diversity Panel; type: biochemical
T4 construct: purchased CEREP (Eurofins Cerep)
T4 sequence (P10938 whole entry): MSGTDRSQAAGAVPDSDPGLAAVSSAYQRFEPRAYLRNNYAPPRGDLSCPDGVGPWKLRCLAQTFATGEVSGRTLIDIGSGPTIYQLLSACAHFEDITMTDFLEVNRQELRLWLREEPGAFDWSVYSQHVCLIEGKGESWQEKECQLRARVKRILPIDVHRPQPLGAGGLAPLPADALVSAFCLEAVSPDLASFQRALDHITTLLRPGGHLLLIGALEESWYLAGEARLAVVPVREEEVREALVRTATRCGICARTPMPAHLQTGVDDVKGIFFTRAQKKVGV
Description: as §1

T1 sequence (P21397 whole entry): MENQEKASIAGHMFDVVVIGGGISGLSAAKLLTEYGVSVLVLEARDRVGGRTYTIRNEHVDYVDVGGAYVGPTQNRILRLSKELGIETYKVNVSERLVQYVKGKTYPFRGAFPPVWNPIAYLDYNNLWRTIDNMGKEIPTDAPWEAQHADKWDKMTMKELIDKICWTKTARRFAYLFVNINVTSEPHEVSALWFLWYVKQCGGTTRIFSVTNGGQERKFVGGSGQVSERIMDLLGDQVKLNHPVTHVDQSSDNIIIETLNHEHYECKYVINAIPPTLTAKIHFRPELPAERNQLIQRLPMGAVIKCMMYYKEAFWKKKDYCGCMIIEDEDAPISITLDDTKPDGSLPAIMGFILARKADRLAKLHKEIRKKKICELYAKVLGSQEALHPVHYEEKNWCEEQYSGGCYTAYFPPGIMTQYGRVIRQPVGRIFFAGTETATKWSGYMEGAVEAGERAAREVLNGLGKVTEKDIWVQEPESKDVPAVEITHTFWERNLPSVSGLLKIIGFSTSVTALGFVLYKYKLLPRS

Which IC50 [1] does the source give for Nc1nnc(CN[C@@H]2C[C@H]2c2ccc(OCc3ccccc3)cc2)o1 [ORY-2001, vafidemstat] here?
Its IC50 is 5.47 ± 0.3 µM.

What about the KI (inactivation) [2] of the same compound?
Its KI (inactivation) is 1.8 µM.

And the “dose limiting toxicity in 5 day MTD studies” value ([3]; hematopoietic impact)?
Its value is “reversible and dose dependent impact on platelets”.

What about the “maximum PLT rebound” value ([3]; rats, 5 day treatment, 14 day recuperation) of the same compound?
Its value is about 12 days.

And the “EC50 of PLT reduction” value ([3]; rats, p.o. gavage, 5 day treatment)?
The value was ~ 0.5 mg/kg.

And the “time exploring mice introduced in the cage” value ([4]; 12 month old female)?
The value was “restored the time SAMP8 spent exploring mice”.

And the “preference for the chamber with the novel mice” value ([4]; female)?
Its value is “restored the normal preference”.

What about the “% inhibition, any of 19 epigenetic targets” value [5] of the same compound?
The value was at most 15%.

What about the inhibition at 10 µM [6] of the same compound?
Its inhibition at 10 µM is 15%.

What about the inhibition at 10 µM [7] of the same compound?
The inhibition at 10 µM was 8%.

What about the inhibition at 10 µM [8] of the same compound?
The inhibition at 10 µM was -1%.

What about the inhibition at 10 µM [9] of the same compound?
Its inhibition at 10 µM is 0%.

And the inhibition at 10 µM [10]?
The inhibition at 10 µM was 0%.

What about the inhibition at 10 µM [11] of the same compound?
Its inhibition at 10 µM is 2%.

And the inhibition at 10 µM [12]?
Its inhibition at 10 µM is -11%.

And the inhibition at 10 µM [13]?
Its inhibition at 10 µM is 7%.

And the inhibition at 10 µM [14]?
Its inhibition at 10 µM is 4%.

What about the inhibition at 10 µM [15] of the same compound?
The inhibition at 10 µM was 3%.

And the inhibition at 10 µM [16]?
The inhibition at 10 µM was -3%.

And the inhibition at 10 µM [17]?
The inhibition at 10 µM was 1%.

And the inhibition at 10 µM [18]?
Its inhibition at 10 µM is 4%.

And the inhibition at 10 µM [19]?
Its inhibition at 10 µM is 1%.
